# Test results as given in US10343992B2, “1-cyano-pyrrolidine compounds as USP30 inhibitors” (MISSION THERAPEUTICS LIMITED, priority 2015, dated 2019).
# Biological target: USP30 (Homo sapiens (Human), UniProt Q70CQ3)
# Experiment: USP30 biochemical FP or FI IC50 assay
# Conditions: read-out: IC50 range
# Summary of the method: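 Human USP30 preincubated 30 min at room temperature with compound (8-point series, 100 µM top final) in Tris pH 7.5, Tween 20, BSA, 5 mM β-mercaptoethanol, in duplicate. FP format: 50 nM TAMRA-peptide–isopeptide-ubiquitin substrate, ex 540/em 590. FI format: 100 nM ubiquitin-rhodamine 110, ex 487/em 535. Both read at 0 and after 2 h at room temperature.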
# Chain of USP30 (Q70CQ3 57-517): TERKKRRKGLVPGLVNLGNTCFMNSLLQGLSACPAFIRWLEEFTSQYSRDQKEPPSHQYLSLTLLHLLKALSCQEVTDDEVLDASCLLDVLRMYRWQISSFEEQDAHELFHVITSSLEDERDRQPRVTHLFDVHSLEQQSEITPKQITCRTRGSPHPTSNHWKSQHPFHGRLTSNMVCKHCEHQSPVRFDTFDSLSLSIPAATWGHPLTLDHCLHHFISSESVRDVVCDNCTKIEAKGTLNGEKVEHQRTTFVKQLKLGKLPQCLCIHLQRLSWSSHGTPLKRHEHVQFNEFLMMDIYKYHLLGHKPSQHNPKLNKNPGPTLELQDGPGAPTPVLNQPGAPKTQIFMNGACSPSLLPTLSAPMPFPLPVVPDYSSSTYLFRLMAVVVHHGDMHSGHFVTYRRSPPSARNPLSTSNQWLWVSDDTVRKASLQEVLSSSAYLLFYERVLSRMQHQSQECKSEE
compound,measurement,value
"N#CN1CC[C@@H](NC(=O)N2CC(c3ccnc(-c4ccccc4)n3)C2)C1 [Example 236, (R)-N-(1-cyanopyrrolidin-3-yl)-3-(2-phenylpyrimidin-4-yl)azetidine-1-carboxamide]",IC50,100 to 1000 nM
"N#CN1CC[C@@H](NC(=O)N2CC(c3ccnc(-c4ccc(Cl)cc4)n3)C2)C1 [Example 237, (R)-3-(2-(4-chlorophenyl)pyrimidin-4-yl)-N-(1-cyanopyrrolidin-3-yl)azetidine-1-carboxamide]",IC50,< 100 nM
"N#CN1CC[C@@H](NC(=O)N2CC(OCc3ccccc3)(c3ccccc3)C2)C1 [Example 238, (R)-3-(benzyloxy)-N-(1-cyanopyrrolidin-3-yl)-3-phenylazetidine-1-carboxamide]",IC50,< 100 nM
"N#CN1CC[C@@H](NC(=O)c2ccc3c(c2)CCN3c2nccc(C3CC3)n2)C1 [Example 239, (R)-N-(1-cyanopyrrolidin-3-yl)-1-(4-cyclopropylpyrimidin-2-yl)indoline-5-carboxamide]",IC50,< 100 nM
"CN(C(=O)c1ccc2c(c1)CCN2c1nccc(C2CC2)n1)[C@@H]1CCN(C#N)C1 [Example 240, (R)-N-(1-cyanopyrrolidin-3-yl)-1-(4-cyclopropylpyrimidin-2-yl)-N-methylindoline-5-carboxamide]",IC50,< 100 nM
"Cc1cc(-c2cccc(NC(=O)N3CC[C@@H]4CN(C#N)C[C@@H]43)c2)ccn1 [Example 241, (3aR,6aR)-5-cyano-N-(3-(2-methylpyridin-4-yl)phenyl)hexahydropyrrolo[3,4-b]pyrrole-1(2H)-carboxamide]",IC50,< 100 nM
"Cc1cc(-c2ccc(NC(=O)N3CC[C@@H]4CN(C#N)C[C@@H]43)cc2)ccn1 [Example 242, (3aR,6aR)-5-cyano-N-(4-(2-methylpyridin-4-yl)phenyl)hexahydropyrrolo[3,4-b]pyrrole-1(2H)-carboxamide]",IC50,< 100 nM
"Cc1cc(-c2ccc(NC(=O)N3CC[C@@H]4CN(C#N)C[C@@H]43)c(F)c2)ccn1 [Example 243, (3aR,6aR)-5-cyano-N-(2-fluoro-4-(2-methylpyridin-4-yl)phenyl)hexahydropyrrolo[3,4-b]pyrrole-1(2H)-carboxamide]",IC50,100 to 1000 nM
"Cc1cc(-c2ccc(NC(=O)N3CC[C@@H]4CN(C#N)C[C@@H]43)nc2)ccn1 [Example 244, (3aR,6aR)-5-cyano-N-(2′-methyl-[3,4′-bipyridin]-6-yl)hexahydropyrrolo[3,4-b]pyrrole-1(2H)-carboxamide]",IC50,< 100 nM
"Cn1cc(-c2ccc(NC(=O)N3CC[C@@H]4CN(C#N)C[C@@H]43)c(F)c2)cn1 [Example 245, (3aR,6aR)-5-cyano-N-(2-fluoro-4-(1-methyl-1H-pyrazol-4-yl)phenyl)hexahydropyrrolo[3,4-b]pyrrole-1(2H)-carboxamide]",IC50,100 to 1000 nM
"N#CN1C[C@H]2CCN(C(=O)N3CC(Oc4ccccc4)C3)[C@H]2C1 [Example 247, (3aR,6aR)-1-(3-phenoxyazetidine-1-carbonyl)hexahydropyrrolo[3,4-b]pyrrole-5(1H)-carbonitrile]",IC50,100 to 1000 nM
"N#CN1CCCC(NC(=O)c2cccc(-c3ccccc3)c2)C1 (centres unmarked) [Example 248, N-(1-cyanopiperidin-3-yl)-[1,1′-biphenyl]-3-carboxamide]",IC50,1000 to 10000 nM
"N#CN1CCCC(NC(=O)Nc2cccc(Oc3ccccc3)c2)C1 (centres unmarked) [Example 250, 1-(1-cyanopiperidin-3-yl)-3-(3-phenoxyphenyl)urea]",IC50,1000 to 10000 nM
"N#CN1CCC(NC(=O)Nc2ccc(Cl)cc2Cl)C1 (centres unmarked) [Example 251, 1-(1-cyanopyrrolidin-3-yl)-3-(2,4-dichlorophenyl)urea]",IC50,100 to 1000 nM
"N#CN1CCC(NC(=O)Nc2ccc(C(F)(F)F)cc2)C1 (centres unmarked) [Example 252, 1-(1-cyanopyrrolidin-3-yl)-3-(4-(trifluoromethyl)phenyl)urea]",IC50,100 to 1000 nM
"N#CN1CCC(NC(=O)Nc2cccc(Cc3ccccc3)c2)C1 (centres unmarked) [Example 253, 1-(3-benzylphenyl)-3-(1-cyanopyrrolidin-3-yl)urea]",IC50,100 to 1000 nM
"N#CN1CCC(NC(=O)Nc2cccc(Oc3ccccc3)c2)C1 (centres unmarked) [Example 255, 1-(1-cyanopyrrolidin-3-yl)-3-(3-phenoxyphenyl)urea]",IC50,< 100 nM
"CN(C(=O)Nc1cccc(Cc2ccccc2)c1)C1CCN(C#N)C1 (centres unmarked) [Example 256, 3-(3-benzylphenyl)-1-(1-cyanopyrrolidin-3-yl)-1-methylurea]",IC50,100 to 1000 nM
"CN(C(=O)Nc1cccc(Cl)c1)C1CCN(C#N)C1 (centres unmarked) [Example 257, 3-(3-chlorophenyl)-1-(1-cyanopyrrolidin-3-yl)-1-methylurea]",IC50,100 to 1000 nM
"CN(C(=O)Nc1cccc(Oc2ccccc2)c1)C1CCN(C#N)C1 (centres unmarked) [Example 258, 1-(1-cyanopyrrolidin-3-yl)-1-methyl-3-(3-phenoxyphenyl)urea]",IC50,< 100 nM
"CN(C(=O)Nc1ccc(-c2ccccc2)cc1)C1CCN(C#N)C1 (centres unmarked) [Example 259, 3-([1,1′-biphenyl]-4-yl)-1-(1-cyanopyrrolidin-3-yl)-1-methylurea]",IC50,< 100 nM
"CN(C(=O)Nc1ccc(Cl)cc1Cl)C1CCN(C#N)C1 (centres unmarked) [Example 260, 1-(1-cyanopyrrolidin-3-yl)-3-(2,4-dichlorophenyl)-1-methylurea]",IC50,100 to 1000 nM
"CN(C(=O)Nc1ccc(C(F)(F)F)cc1)C1CCN(C#N)C1 (centres unmarked) [Example 261, 1-(1-cyanopyrrolidin-3-yl)-1-methyl-3-(4-(trifluoromethyl)phenyl)urea]",IC50,100 to 1000 nM
"CN(C(=O)c1cc2cc(-c3cnn(C)c3)ncc2[nH]1)[C@@H]1CCN(C#N)C1 [Example 263, (R)-N-(1-cyanopyrrolidin-3-yl)-N-methyl-5-(1-methyl-1H-pyrazol-4-yl)-1H-pyrrolo[2,3-c]pyridine-2-carboxamide]",IC50,100 to 1000 nM
"CN(C(=O)N1CCOC(c2ccccc2)C1)[C@@H]1CCN(C#N)C1 (stereo partly drawn) [Example 264, N-((R)-1-cyanopyrrolidin-3-yl)-N-methyl-2-phenylmorpholine-4-carboxamide]",IC50,100 to 1000 nM
"CN(C(=O)N1CCc2ccccc21)[C@@H]1CCN(C#N)C1 [Example 265, (R)-N-(1-cyanopyrrolidin-3-yl)-N-methylindoline-1-carboxamide]",IC50,1000 to 10000 nM
"CN(C(=O)Nc1ccc(C(F)(F)F)nc1)[C@@H]1CCN(C#N)C1 [Example 266, (R)-1-(1-cyanopyrrolidin-3-yl)-1-methyl-3-(6-(trifluoromethyl)pyridin-3-yl)urea]",IC50,100 to 1000 nM
"CN(C(=O)Nc1ccc(Cl)cn1)[C@@H]1CCN(C#N)C1 [Example 267, (R)-3-(5-chloropyridin-2-yl)-1-(1-cyanopyrrolidin-3-yl)-1-methylurea]",IC50,100 to 1000 nM
"N#CN1C[C@H]2CCN(C(=O)c3ccc(N4CCOCC4)c(Cl)c3)[C@H]2C1 [Example 268, (3aR,6aR)-1-(3-chloro-4-morpholinobenzoyl)hexahydro-pyrrolo[3,4-b]pyrrole-5(1H)-carbonitrile]",IC50,100 to 1000 nM
"Cc1cc(-c2cc(C(=O)N[C@@H]3CCN(C#N)C3)on2)ccn1 [Example 270, (R)-N-(1-cyanopyrrolidin-3-yl)-3-(2-methylpyridin-4-yl)isoxazole-5-carboxamide]",IC50,100 to 1000 nM
"Cc1ccc(-c2cc(C(=O)N[C@@H]3CCN(C#N)C3)on2)cc1C [Example 271, (R)-N-(1-cyanopyrrolidin-3-yl)-3-(3,4-dimethylphenyl)isoxazole-5-carboxamide]",IC50,< 100 nM
"N#CN1CC[C@@H](NC(=O)c2cc(-c3ccc(F)cc3F)no2)C1 [Example 272, (R)-N-(1-cyanopyrrolidin-3-yl)-3-(2,4-difluorophenyl)isoxazole-5-carboxamide]",IC50,< 100 nM
"Cc1cc(-c2cc(C(=O)N(C)[C@@H]3CCN(C#N)C3)on2)ccn1 [Example 273, (R)—N-(1-cyanopyrrolidin-3-yl)-N-methyl-3-(2-methylpyridin-4-yl)isoxazole-5-carboxamide]",IC50,100 to 1000 nM
"(3aR,6aR)-1-(indoline-1-carbonyl)hexahydropyrrolo[3,4-b]pyrrole-5(1H)-carbonitrile [Example 269]",IC50,1000 to 10000 nM
"(R)-N-(1-cyanopyrroldidin-3-yl)-6-(3,5-dimethylisoxazol-4-yl)-N-methyl-1H-indole-2-carboxamide [Example 262]",IC50,< 100 nM
